We go through two compounds from ChEMBL document CHEMBL1143125, “DNA cleavage by novel copper (II) complex and the role of beta-cyclodextrin in promoting cleavage” (Bioorg Med Chem, 2008).

One assay concerns Escherichia coli. Kind of assay: Induction of Escherichia coli pUC19 DNA cleavage assessed as non-cleaved DNA level at 0.714 mM after 12 hrs.
A further assay concerns DNA. Kind of assay: Binding affinity to calf thymus DNA assessed by fluorescence quenching assay. Type of assay: nucleic-acid assay. The settings on record: Bos taurus.

`OC[C@H]1O[C@@H]2O[C@H]3[C@H](O)[C@@H](O)[C@@H](O[C@H]4[C@H](O)[C@@H](O)[C@@H](O[C@H]5[C@H](O)[C@@H](O)[C@@H](O[C@H]6[C@H](O)[C@@H](O)[C@@H](O[C@H]7[C@H](O)[C@@H](O)[C@@H](O[C@H]8[C@H](O)[C@@H](O)[C@@H](O[C@H]1[C@H](O)[C@H]2O)O[C@@H]8CO)O[C@@H]7CO)O[C@@H]6CO)O[C@@H]5CO)O[C@@H]4CO)O[C@@H]3CO`: in the assay on Escherichia coli, the Activity came to 6.3%.

For the compound `NC(CCC(=O)Nc1cccc2ccccc12)C(=O)N1CCNCCNCCNCC1` (stereo not drawn), the K in the assay with DNA turned out to be 30000 L/mol. In the assay on Escherichia coli, the Activity worked out at 7.4%.
